# Activity calls are given as the source filed them. The rule behind the calls is not given here.
# Legend:
# [1] = tested on: SK-MEL-28; assay: Anticancer activity against human SK-MEL-28 cells assessed as inhibition in cell growth measured after 72 hrs by MTT assay; assay type: functional, cell-based; conditions: SK-MEL-28, 72 h
# [2] = tested on: B16-F10; assay: Anticancer activity against mouse B16-F10 cells assessed as inhibition in cell growth measured after 72 hrs by MTT assay; assay type: functional, cell-based; conditions: B16-F10, 72 h
# [3] = tested on: A549; assay: Anticancer activity against human A549 cells assessed as inhibition in cell growth measured after 72 hrs by MTT assay; assay type: functional, cell-based; conditions: A549, 72 h
# [4] = tested on: MCF7; assay: Anticancer activity against human MCF7 cells assessed as inhibition in cell growth measured after 72 hrs by MTT assay; assay type: functional, cell-based; conditions: MCF7, 72 h
# [5] = tested on: HCT-116; assay: Anticancer activity against human HCT-116 cells assessed as inhibition in cell growth measured after 72 hrs by MTT assay; assay type: functional, cell-based; conditions: HCT-116, 72 h
# [6] = Cytotoxicity against NRK-52E cells assessed as inhibition in cell growth measured after 72 hrs by MTT assay; assay type: toxicity, cell-based; conditions: rat
# [7] = Selectivity index, ratio of IC50 for NRK-52E cells to ratio of IC50 for mouse B16-F10 cells; assay type: toxicity; conditions: NRK-52E cells versus B16-F10 cells, read-out: Selectivity Index
# [8] = tested on: SK-MEL-28; assay: Induction of morphological changes in human SK-MEL-28 cells assessed as bright fragmented nuclei at 1 to 5 uM measured after 48 hrs DAPI staining based analysis; assay type: functional, cell-based; conditions: dose 1-5 µM
# [9] = tested on: SK-MEL-28; assay: Inhibition of cell migration in human SK-MEL-28 cells at 1 to 5 uM incubated for 0 to 48 hrs by wound healing assay; assay type: functional, cell-based; conditions: dose 1-5 µM, time 0-48 hrs
# [10] = tested on: SK-MEL-28; assay: Induction of morphological changes in human SK-MEL-28 cells assessed as membrane blebbing by ethidium bromide/acridine orange staining based analysis; assay type: functional, cell-based; conditions: dose 1-5 µM
# [11] = tested on: SK-MEL-28; assay: Inhibition of colony formation in human SK-MEL-28 cells incubated for 48 hrs by crystal violet staining based colony formation assay; assay type: functional, cell-based; conditions: dose 1-5 µM
# [12] = tested on: SK-MEL-28; assay: Induction of morphological changes in human SK-MEL-28 cells assessed as appearance of nuclei at 1 to 5 uM measured after 48 hrs DAPI staining based analysis; assay type: functional, cell-based; conditions: dose 1-5 µM
# [13] = tested on: SK-MEL-28; assay: Induction of morphological changes in human SK-MEL-28 cells assessed as chromatin condensation by ethidium bromide/acridine orange staining based analysis; assay type: functional, cell-based; conditions: dose 1-5 µM
# [14] = tested on: SK-MEL-28; assay: Inhibition of cell migration in human SK-MEL-28 cells at 1 to 5 uM incubated for 0 to 48 hrs by phase-contrast microscopy; assay type: functional, cell-based; conditions: dose 1-5 µM, time 0-48 hrs
# [15] = tested on: SK-MEL-28; assay: Induction of morphological changes in human SK-MEL-28 cells assessed as bright pyknotic nuclei at 1 to 5 uM measured after 48 hrs DAPI staining based analysis; assay type: functional, cell-based; conditions: dose 1-5 µM
# [16] = tested on: SK-MEL-28; assay: Induction of morphological changes in human SK-MEL-28 cells assessed as cell shrinkage by ethidium bromide/acridine orange staining based analysis; assay type: functional; conditions: dose 1-5 µM
# [17] = tested on: SK-MEL-28; assay: Induction of morphological changes in human SK-MEL-28 cells assessed as production of apoptotic bodies by ethidium bromide/acridine orange staining based analysis; assay type: functional, cell-based; conditions: dose 1-5 µM
# [18] = Selectivity index, ratio of IC50 for NRK-52E cells to ratio of IC50 for human HCT-116 cells; assay type: toxicity; conditions: rat (NRK-52E), NRK-52E cells versus HCT-116 cells, read-out: Selectivity Index
# [19] = Selectivity index, ratio of IC50 for NRK-52E cells to ratio of IC50 for human A549 cells; assay type: toxicity; conditions: rat (NRK-52E), NRK-52E cells versus A549 cells, read-out: Selectivity Index
# [20] = tested on: SK-MEL-28; assay: Induction of ROS generation in human SK-MEL-28 cells by DCFDA staining based analysis; assay type: functional, cell-based; conditions: dose 1-5 µM
# [21] = tested on: SK-MEL-28; assay: Induction of morphological changes in human SK-MEL-28 cells assessed as chromatin condensation at 1 to 5 uM measured after 48 hrs DAPI staining based analysis; assay type: functional, cell-based; conditions: dose 1-5 µM
# [22] = tested on: SK-MEL-28; assay: Induction of morphological changes in human SK-MEL-28 cells assessed as nuclear shrinkage at 1 to 5 uM measured after 48 hrs DAPI staining based analysis; assay type: functional, cell-based; conditions: dose 1-5 µM
# [23] = Selectivity index, ratio of IC50 for NRK-52E cells to ratio of IC50 for human SK-MEL-28 cells
# [24] = Selectivity index, ratio of IC50 for NRK-52E cells to ratio of IC50 for human MCF7 cells; assay type: toxicity; conditions: rat (NRK-52E), NRK-52E cells versus MCF7 cells, read-out: Selectivity Index
SMILES,IC50 [1] [µM],IC50 [2] [µM],IC50 [3] [µM],IC50 [4] [µM],IC50 [5] [µM],IC50 at 72 h [6] [µM],further results
COc1ccc2[nH]c(-c3ccc(OCC(=O)N4CCN(c5ncccn5)CC4)c(OC)c3)nc2c1,6.13,12.5,8.35,> 20,> 20,> 100,
COc1ccc2[nH]c(-c3ccc(OCC(=O)N4CCc5ccccc54)c(OC)c3)nc2c1,3.32,12.6,8.05,7.78,8.39,> 100,
COc1ccc2[nH]c(-c3ccc(OCC(=O)N4CCc5ccccc5C4)c(OC)c3)nc2c1,2.95,4.96,8.12,11,7.9,20.5,
COc1cc(-c2nc3ccccc3[nH]2)ccc1OCC(=O)N1CCN(c2ncccn2)CC1,12.2,> 20,> 20,> 20,> 20,> 100,
COc1ccc2[nH]c(-c3ccc(OCC(=O)N4CCN(C(=O)OC(C)(C)C)CC4)c(OC)c3)nc2c1,> 20,> 20,> 20,> 20,> 20,> 100,
COc1cc(-c2nc3ccccc3[nH]2)ccc1OCC(=O)N1CCN(C(=O)OC(C)(C)C)CC1,> 20,> 20,> 20,> 20,> 20,> 100,
COc1cc(-c2nc3ccccc3[nH]2)ccc1OCC(=O)N1CCc2ccccc21,3.82,> 20,> 20,7.68,> 20,> 100,
COc1cc(-c2nc3cc(C)ccc3[nH]2)ccc1OCC(=O)N1CCc2ccccc2C1,2.55,4.76,5.5,5.9,6.04,51.9,selectivity ratio [7]: 10.9; Activity [8]: Active; inhibition [9]: Active; Activity [10]: Dose-Dependent Effect; inhibition [11]: Dose-Dependent Effect; Activity [12]: Active; Activity [13]: Dose-Dependent Effect; inhibition [14]: Active; Activity [15]: Active; Activity [16]: Dose-Dependent Effect; Activity [17]: Dose-Dependent Effect; selectivity ratio [18]: 8.6; selectivity ratio [19]: 9.4; Activity [20]: Dose-Dependent Effect; Activity [21]: Active; Activity [22]: Active; Selectivity Index [23]: 20.3; selectivity ratio [24]: 8.8
COc1cc(-c2nc3ccccc3[nH]2)ccc1OCC(=O)N1CCc2ccccc2C1,> 20,> 20,> 20,> 20,> 20,> 100,
COc1cc(-c2nc3cc(C)ccc3[nH]2)ccc1OCC(=O)N1CCN(c2ncccn2)CC1,5.42,8.53,7.93,11.8,4.7,> 100,
COC(=O)Nc1nc2cc(C(=O)c3cccs3)ccc2[nH]1 [NOCODAZOLE],8.59,8.58,5.93,4.13,3.5,,
COc1cc(-c2nc3cc(C)ccc3[nH]2)ccc1OCC(=O)N1CCc2ccccc21,> 20,15.6,6.89,> 20,> 20,> 100,

# Second part, led by results:
IC50 [1] [µM],IC50 [2] [µM],IC50 [3] [µM],IC50 [4] [µM],IC50 [5] [µM],SMILES,IC50 at 72 h [6] [µM],further results
> 20,> 20,> 20,> 20,> 20,COc1ccc2[nH]c(-c3ccc(OCC(=O)N4CCCCC4)c(OC)c3)nc2c1,> 100,
> 20,> 20,> 20,> 20,> 20,COc1ccc2[nH]c(-c3ccc(OCC(=O)N4CCOCC4)c(OC)c3)nc2c1,> 100,
> 20,> 20,> 20,> 20,> 20,COc1ccc2[nH]c(-c3ccc(OCC(=O)N4CCCC4)c(OC)c3)nc2c1,> 100,
> 20,> 20,> 20,> 20,> 20,COc1cc(-c2nc3cc(F)ccc3[nH]2)ccc1OCC(=O)N1CCCCC1,> 100,
7.71,16.1,14,> 20,> 20,COc1cc(-c2nc3cc(F)ccc3[nH]2)ccc1OCC(=O)N1CCN(c2ncccn2)CC1,> 100,
> 20,> 20,> 20,> 20,> 20,COc1cc(-c2nc3cc(F)ccc3[nH]2)ccc1OCC(=O)N1CCN(C(=O)OC(C)(C)C)CC1,> 100,
> 20,> 20,> 20,> 20,> 20,COc1cc(-c2nc3cc(F)ccc3[nH]2)ccc1OCC(=O)N1CCOCC1,> 100,
8.59,> 20,> 20,14.7,10.1,COc1cc(-c2nc3cc(F)ccc3[nH]2)ccc1OCC(=O)N1CCc2ccccc2C1,> 100,
> 20,> 20,> 20,> 20,> 20,COc1cc(-c2nc3cc(C)ccc3[nH]2)ccc1OCC(=O)N1CCOCC1,> 100,
> 20,> 20,> 20,> 20,> 20,COc1cc(-c2nc3cc(C)ccc3[nH]2)ccc1OCC(=O)N1CCCCC1,> 100,
> 20,> 20,> 20,> 20,> 20,COc1cc(-c2nc3cc(C)ccc3[nH]2)ccc1OCC(=O)N1CCCC1,> 100,
> 20,> 20,> 20,> 20,> 20,COc1cc(-c2nc3ccccc3[nH]2)ccc1OCC(=O)N1CCCCC1,> 100,
> 20,> 20,> 20,> 20,> 20,COc1cc(-c2nc3ccccc3[nH]2)ccc1OCC(=O)N1CCCC1,> 100,
> 20,> 20,> 20,> 20,> 20,COc1cc(-c2nc3cc(F)ccc3[nH]2)ccc1OCC(=O)N1CCCC1,> 100,
> 20,> 20,> 20,> 20,> 20,COc1cc(-c2nc3ccccc3[nH]2)ccc1OCC(=O)N1CCOCC1,> 100,

# From ChEMBL document CHEMBL5390218, “Benzimidazole derivatives as tubulin polymerization inhibitors: Design, synthesis and in vitro cytotoxicity studies” (Bioorg Med Chem Lett, 2023)
